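Interpolation was linear, between the two tested concentrations surrounding the appropriate level; five concentrations were tested over 48 hours in 96-well plates. The concentration for 50% growth inhibition is given as GI50. Definition used: TGI = concentration required for complete inhibition of growth.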
What was measured:
Assay in all cases: DTP human tumour cell line panel, 48 h
LOX IMVI melanoma = system: LOX IMVI melanoma
SF-539 CNS = system: SF-539 CNS
OVCAR-8 ovarian = system: OVCAR-8 ovarian
UACC-257 melanoma = system: UACC-257 melanoma
NCI/ADR-RES ovarian = system: NCI/ADR-RES ovarian
K-562 leukemia = system: K-562 leukemia
NCI-H522 lung = system: NCI-H522 lung
SW-620 colon = system: SW-620 colon
HCT-15 colon = system: HCT-15 colon
CCRF-CEM leukemia = system: CCRF-CEM leukemia

| Compound | GI50 (LOX IMVI melanoma) [nM] | TGI (LOX IMVI melanoma) [µM] | GI50 (SF-539 CNS) [nM] | TGI (SF-539 CNS) [µM] | GI50 (OVCAR-8 ovarian) [µM] | TGI (OVCAR-8 ovarian) [µM] | GI50 (UACC-257 melanoma) [µM] | TGI (UACC-257 melanoma) [µM] | GI50 (NCI/ADR-RES ovarian) [µM] | TGI (NCI/ADR-RES ovarian) [µM] | GI50 (K-562 leukemia) [nM] | TGI (K-562 leukemia) [µM] | GI50 (NCI-H522 lung) [nM] | TGI (NCI-H522 lung) [µM] | GI50 (SW-620 colon) [nM] | TGI (SW-620 colon) [µM] | GI50 (HCT-15 colon) [µM] | TGI (HCT-15 colon) [µM] | GI50 (CCRF-CEM leukemia) [nM] | TGI (CCRF-CEM leukemia) [µM] |
| --- | --- | --- | --- | --- | --- | --- | --- | --- | --- | --- | --- | --- | --- | --- | --- | --- | --- | --- | --- | --- |
| O=C(/C=C/c1ccc(O)c(O)c1)NCc1c[nH]c2ccccc12 | 60000 | > 100 | 38900 | > 100 | 56.6 | > 100 | > 100 | > 100 | > 100 | > 100 | 68100 | > 100 | 44900 | > 100 | 58600 | > 100 | 44.2 | > 100 | 48400 | > 100 |
| NS(=O)(=O)c1ccc(N2N=C3c4ccccc4CC3C2c2cccs2)cc1 (stereo not drawn) | 19100 | 42.6 | 17400 | 48.1 | 15.3 | 40.1 | 29.7 | 73.7 | 17.1 | 43.4 | 5750 | 81.9 | 39300 | > 100 | 35400 | > 100 | 34.7 | > 100 | 31800 | > 100 |
| O=c1cc(-c2ccc(O)cc2)oc2cc(O[C@@H]3O[C@H](CO)[C@@H](O)[C@H](O)[C@H]3O)cc(O)c12 | – | > 100 | – | > 100 | – | > 100 | – | > 100 | – | > 100 | – | > 100 | – | > 100 | – | > 100 | – | > 100 | – | > 100 |
| Cc1cc(Cl)ccc1OCC(=O)Nc1nc(N)nc(N)n1 | – | > 100 | – | > 100 | – | > 100 | – | > 100 | – | > 100 | – | > 100 | – | > 100 | – | > 100 | – | > 100 | – | > 100 |
| COC(=O)C(CCC(=O)CCl)N1C(=O)c2ccccc2C1=O (stereo not drawn) | – | 4.02 | – | 22 | – | 19 | – | 22.2 | – | 29.7 | – | 12.7 | – | 4.06 | – | 15.6 | – | 15.8 | – | 6.34 |
| CN1CCN(Cc2ccc(NC(=O)c3cncc(C#Cc4cnc(N)cc4C#N)c3)cc2C(F)(F)F)CC1 | 601 | 1.99 | 959 | 3.55 | 4.51 | 19 | 3.24 | 15.4 | 13.7 | 33.4 | 34 | 12.1 | 3690 | 17.7 | 2920 | 11.4 | 3.87 | 13.9 | 3400 | 42.7 |
| CN(C)CCNC(=O)c1ccc(-c2nc3ccc4[nH]ncc4c3c3c2C2CCC3C2)cc1 (stereo not drawn) | 1190 | 2.79 | 702 | 2.39 | 1.4 | 9.81 | 3.07 | 9.95 | 8.3 | 26.8 | 1290 | 9.4 | 1250 | 4.33 | 473 | 5.16 | 2.44 | 11.4 | 1010 | 10.1 |
| CCCCCN(CCCCC)CC(O)c1cc(Cl)ccc1OC (stereo not drawn) | 5230 | 18.4 | 10800 | 24.3 | 11.4 | 25.7 | 4.98 | 18.7 | 9.26 | 25.9 | 3810 | 20.3 | 1980 | 15.2 | 4660 | 18.2 | 6.32 | 21.5 | 11300 | 36 |
| CCN1CCN(Cc2ccc(NC(=O)Nc3nc4ccc(Oc5ccnc(C(=O)NC)c5)cc4s3)cc2C(F)(F)F)CC1 | 1710 | 3.17 | 1540 | 2.97 | 2.11 | 4.49 | 1.86 | 3.51 | 1.95 | 4.21 | 51.4 | 1.27 | 1680 | 3.59 | 2070 | 3.87 | 1.65 | 3.38 | 443 | 2.47 |
| C1=C/COCc2cc(ccc2OCCN2CCCC2)Nc2nccc(n2)-c2ccc(o2)COC/1 | 817 | 2.29 | 1720 | 3.33 | 2.59 | 18.8 | 1.52 | 3.43 | 2.9 | 8.62 | 2650 | > 33.1 | 1840 | 6.13 | 2360 | 11.7 | 1.11 | 9.11 | 2060 | 7.2 |
| Cc1ccc2nc(-c3ccc(OCC(=O)N=Nc4c(O)[nH]c5ccccc45)cc3)[nH]c2c1 | 1830 | 3.52 | 3510 | 13.9 | 2.46 | 6.34 | 29.8 | > 100 | > 100 | > 100 | 2430 | 9.44 | 2000 | 5.09 | 2020 | 4.32 | 8.69 | > 100 | 1930 | 11.3 |
| O=C(O)/C=C\C(=O)Nc1ccccn1 | – | > 100 | – | > 100 | – | > 100 | – | > 100 | – | > 100 | – | > 100 | – | > 100 | – | > 100 | – | > 100 | – | > 100 |
| COC(=O)c1cc2c(cc1Cl)SC1=NN(C)S(=O)N1S2(=O)=O (stereo not drawn) | > 100000 | > 100 | > 100000 | > 100 | > 100 | > 100 | > 100 | > 100 | > 100 | > 100 | > 100000 | > 100 | > 100000 | > 100 | > 100000 | > 100 | > 100 | > 100 | > 100000 | > 100 |
| CN1CCN(CCOc2ccc(-c3cnc4c(-c5cccc(F)c5)cnn4c3)cc2)CC1 | 1840 | 3.35 | 1490 | 2.88 | 2.45 | 7.12 | 2.33 | 5.71 | 2.47 | 6.14 | 915 | 3.48 | 1730 | 3.65 | 1810 | 3.4 | 1.52 | 2.92 | 2110 | 5.23 |
| CN(C)c1nc(=NCc2ccco2)ss1 | – | 38.4 | – | 19.8 | – | 62.4 | – | > 79.4 | – | > 100 | – | > 90.8 | – | 3.11 | – | 61.9 | – | 49.9 | – | 33.8 |
| Cc1cc(C)c2c(n1)sc1c(N)ncnc12 | > 25000 | > 25 | > 24100 | > 25 | > 25 | > 25 | > 25 | > 25 | > 25 | > 25 | > 25000 | > 25 | > 25000 | > 25 | > 25000 | > 25 | > 25 | > 25 | > 25000 | > 25 |
| Cn1c(=O)c2[nH]c(SCCN3CCOCC3)nc2n(C)c1=S | – | > 100 | – | > 100 | – | > 100 | – | > 100 | – | > 100 | – | > 100 | – | > 100 | – | > 100 | – | > 100 | – | > 100 |
| CC[C@@]1(OC(=O)CN)C(=O)OCc2c1cc1n(c2=O)Cc2c-1nc1cc3c(cc1c2CCl)OCO3 | < 10 | 5.03 | < 10 | < 0.0318 | < 0.0105 | 0.354 | 1.02 | 15.1 | < 0.01 | 0.0583 | 64.2 | – | 25.7 | 2.19 | < 19.6 | 32.6 | 0.372 | 10.2 | < 10 | > 100 |
| CSc1ncc(Br)c(Sc2nc(N)nc3nc[nH]c23)n1 | 816 | 17.7 | 3200 | 15 | 3.78 | > 100 | 3.23 | 37.9 | 3.64 | > 100 | 2010 | 10.1 | 3970 | 20.3 | 4460 | 24 | 3.18 | 50.8 | 2380 | 9.3 |
| CCn1c(-c2cc3c([nH]c4ccccc43)c(-c3cccc(O)c3)n2)n[nH]c1=S | 2930 | 12.7 | 2420 | 9.27 | 3.96 | 31 | 4.11 | 16.4 | 3.15 | 42 | 1880 | > 100 | 2020 | 7.07 | 4150 | 18.9 | 3.37 | 16.1 | 2930 | 12.4 |
| CCCCCCCCOC(=O)c1c(C)[nH]c(/C=C2\N=C(c3ccc[nH]3)C=C2OC)c1C | < 13.4 | < 0.02 | 52.9 | 2.62 | 0.0459 | 13.8 | 0.188 | 7.45 | 0.0367 | 9.86 | 21.2 | 14.2 | 31.6 | 4.02 | < 18.1 | 1.56 | < 0.0163 | 3.15 | < 17.8 | > 27.4 |
| COc1ccc(C(=O)c2cc3c(N)c(C(=O)Nc4ccccc4)sc3nc2C)cc1 | 739 | > 100 | 598 | 4.57 | 3.71 | > 100 | 47.1 | > 100 | 0.816 | > 100 | 526 | > 100 | 1890 | > 100 | 415 | > 100 | 0.426 | > 100 | 852 | > 100 |
| COc1cccc(CN(C)c2ccc(CO)c(Cl)c2)c1 | 34700 | > 100 | 48000 | > 100 | 20.7 | > 96.5 | 0.216 | 0.679 | 19.1 | 67 | 7560 | > 100 | 22000 | > 74.3 | 4340 | > 100 | 24 | > 100 | 39300 | > 100 |
| CC1CN(S(=O)(=O)c2oc(-c3ccc(Cl)cc3)nc2C#N)CC(C)O1 (stereo not drawn) | 926 | 2.35 | 1780 | 3.28 | 3.19 | 21.2 | 2.15 | 6.34 | 10.7 | 65.5 | 2070 | > 100 | 945 | 2.79 | 1360 | 3.09 | 1.41 | 3.04 | 505 | 4.24 |
| CC(C)c1nc(N(C)S(C)(=O)=O)nc(-c2ccc(F)cc2)c1/C=C/[C@@H](O)C[C@@H](O)CC(=O)O | 21200 | > 100 | > 100000 | > 100 | > 85.4 | > 100 | > 100 | > 100 | 48.6 | > 100 | > 100000 | > 100 | 21500 | > 100 | > 100000 | > 100 | 57.4 | > 100 | > 100000 | > 100 |
| Cc1ncc(C(=O)Nc2ccc(CN3CCN(C)CC3)c(C(F)(F)F)c2)cc1C#Cc1ccc(N)nc1 | 131 | 0.496 | 367 | 1.1 | 0.489 | 5.03 | 0.582 | 3.25 | 1.03 | 5.64 | 3.33 | 24.5 | 192 | 1.75 | 244 | 1.36 | 0.224 | 3.7 | 598 | 12.3 |
| O=[N+]([O-])c1nccn1CC(O)CN1CCCCC1 (stereo not drawn) | – | > 100 | – | > 100 | – | > 100 | – | > 100 | – | > 100 | – | > 100 | – | > 100 | – | > 100 | – | > 100 | – | > 100 |
| NC(=O)c1cc(N(CCO)CCO)c([N+](=O)[O-])cc1[N+](=O)[O-] | – | > 100 | – | > 100 | – | – | – | > 100 | – | > 100 | – | > 100 | – | > 100 | – | > 100 | – | > 100 | – | > 100 |

Source: PubChem BioAssay (NCI)
